Source: patent US20030073729A1, “Medicaments for diabetic complication and neuropathy, and uses thereof” (AJINOMOTO CO. INC, priority 2000, published 2003)

Columns and labels:
[1] = tested on: GK rat; experiment: Motor nerve conduction velocity (tail nerve) in GK rats; format: in vivo; conditions: 23 weeks after start of oral administration twice a day, glibenclamide 1 mg/kg, nateglinide 50 mg/kg, control group 48.2±1.3, normal control 55.2±1.8
Procedure: An animal test was conducted on a set of the following four groups, and nateglinide and glibenclamide were each suspended into 0.5% methyl cellulose (MC) to give a solution for administration.
GKrats( :male) as a spontaneous diabetic model and normal Wistar rats ( : male) were introduced at the age of 6 weeks.
From the age of 7 weeks, they were kept under a light control (dark term: 7:00 a.m. to 7:00 p.m.; light term: 7:00 p.m. to next morning 7:00) in a feeding limit condition, in which a feed was given twice a day, each only for 1 hour at an interval of 6 hours (9:00 a.m. to 10:00 a.m., and 3:00 p.m. to 4:00 p.m.).
Everyday from the age of 14 weeks, 0.5% MC, glibenclamide (1 mg/kg) or nateglinide (50 mg/kg) was forcibly administered orally just before each feeding twice a day (at 9:00 a.m. and 3:00 p.m.) at an interval of 6 hours.
Twenty-three weeks after the start of the drug administration (the age of 37 weeks), in order to examine an influence on diabetic complications, the motor nerve conduction velocity was measured according to the method described in Cameronetal., Diabetologia, Vol.39, p.1047-1054 (1996), using a tail nerve.

[2] = tested on: GK rat; experiment: Total cholesterol concentration in blood plasma of GK rats; format: in vivo; conditions: fasted 17 hours, 4, 14 and 23 weeks after start of administration, glibenclamide 1 mg/kg, nateglinide 50 mg/kg twice a day, FIG. 2
Procedure: In the same manners as those in the Example 1, the groups formation for the test animals, the feeding of the animals and the administration of medicinal compounds (drug) to be tested to the animals were performed. At one week before the start of the drug administration (the age of 13 weeks) for the animals, and at four weeks (the age of 18 weeks), fourteen weeks (the age of 28 weeks) and twenty-three weeks (the age of 37 weeks) each after the start of the drug administration, the blood samples were taken from the jugglar vein after fasting (abstinence from food) for 17 hours. The total cholesterol concentration in the blood plasma was measured by means of the cholesterol oxidase test method using the Fuji […] analyzer.

[3] = tested on: Na^+/K^+-ATPase activity in the sciatic nerve; experiment: Na+/K+-ATPase activity in sciatic nerve of GK rats; format: in vivo; conditions: GK rat, 23 weeks after start of oral administration, nateglinide 50 mg/kg twice a day; control group 87.6±9.8, normal control 110.5±7.7
Procedure: In the same manners as those in the Example 1, the group formation for the test animals, the feeding of the animals and the administration of medicinal compounds (drug) to be tested to the animals were performed. At twenty-three weeks after the start of the drug administration (the age of 37 weeks), the rats were killed and the sciatic nerves were excised. A Na^+/K^+-ATPase activity in the sciatic nerve was measured based on the method described in Green et al., Journal of Clinical Investigation, vol.72, 1058-1063 (1983).

[4] = tested on: Zucker Fatty rat; experiment: Triglyceride concentration in blood plasma after fat emulsion loading, Zucker Fatty rat; format: in vivo; conditions: for area under the curve (AUC) of the triglyceride until four hours after the load: Zucker Fatty rat, fat emulsion load, nateglinide 50 mg/kg or voglibose 0.2 mg/kg orally
Procedure: (§1) Using the postprandial hyper lipemiamodel rats (10rats) thus obtained, in a crossover method, an influence of the drug administered on a triglyceride concentration in blood plasma (a postprandial hyperlipemia- suppressing effect) was examined. That is, nateglinide (50 mg/kg) or voglibose (0.2 mg/kg), an alpha-glucosidase inhibitor as a control was administered orally, just before loading with the fat emulsion, and the blood samples were taken from a tail vein with time by four hours after the administration.
(§2) A triglyceride concentration in the blood plasma was measured by means of the Fuji Drichem analyzer.
The same examinations were also conducted with the use of a Zucker Fatty rat which is another hyperlipidemic animal.
As a result of fractional analysis of lipoprotein by means of anagarose gel electrophoresis, amarked increase of fractions in the origin area and pre β subfractions, which are thought to contain chylomicron, VLDL (very low density lipoprotein) and so on which are said to correlate with an angiopathy and an arteriosclerosis was observed.

[5] = tested on: GK rats; experiment: Triglyceride concentration in blood plasma after fat emulsion loading, GK rats; format: in vivo, rat; conditions: fat emulsion (Intralipos, 2 g/kg) load, crossover, nateglinide 50 mg/kg or voglibose 0.2 mg/kg orally just before loading
Procedure: as §1, §2

[6] = tested on: vWF concentration in the serum; experiment: vWF concentration in serum of GK rats (ELISA); format: in vivo; conditions: GK rat, 23 weeks after start of administration, nateglinide 50 mg/kg twice a day; relative to normal control group 100; control group 184.8±24.3
Procedure: In the same manners as those in the Example 1, the feeding of the animals for the test animals and the administration of medicinal compounds (drug) to be tested to the animals were performed. At twenty-three (23) weeks after the start of the drug administration (the age of 37 weeks), the blood samples were taken from the postcaval vein. The vWF concentration in the serum was measured by means of the ELISA method using anti-human vWF antibody (made by DAKO Co.).

Compound	motor nerve conduction velocity [1]	total cholesterol concentration in the blood plasma [2]	Na^+/K^+-ATPase activity in the sciatic nerve [3]	area under the curve (AUC) of the triglyceride until four hours after the load [4]	increase of lipoprotein fractions in the origin area and pre β subfractions (agarose gel electrophoresis) ([4]; after fat emulsion load, fractions thought to contain chylomicron, VLDL)	increase of area under the curve (AUC) of the triglyceride during four hours after the loading [5]	vWF concentration in the serum [6]
COc1ccc(Cl)cc1C(=O)NCCc1ccc(S(=O)(=O)NC(=O)NC2CCCCC2)cc1 [glibenclamide]	52.3±0.9 m/sec	change in the cholesterol value was not observed	–	–	–	–	–
CC(C)[C@H]1CC[C@H](C(=O)N[C@H](Cc2ccccc2)C(=O)O)CC1 [nateglinide, (−)-N-(trans-4-isopropylcyclohexane-carbonyl)-D-phenylalanine]	55.9±1.3 m/sec	marked decrease	99.5±7.6 μmol ADP/g/hr	15 ± 69 mg·h/dL	suppressed	81 ± 22 mg·h/dL	124.5±21.5%
OCC(CO)N[C@H]1C[C@](O)(CO)[C@@H](O)[C@H](O)[C@H]1O [voglibose]	–	–	–	501 ± 112 mg·h/dL	–	164 ± 17 mg·h/dL	–
